From article PMC11831592, “Repurposing Linezolid in Conjunction with Histone Deacetylase Inhibitor Access in the Realm of Glioblastoma Therapies” (Journal of Medicinal Chemistry, 2025)

Assays:
HDAC6 = biological target: T1, HDAC6 (Homo sapiens, UniProt Q9UBN7); assay: HDAC enzyme inhibition assay, HDAC6; assay type: biochemical; conditions: 10-dose, 3-fold serial dilution starting at 10 μM
T1 construct: purchased Reaction Biology Corporation, Malvern, PA (contract assay service)
T1 sequence (Q9UBN7 1-1215): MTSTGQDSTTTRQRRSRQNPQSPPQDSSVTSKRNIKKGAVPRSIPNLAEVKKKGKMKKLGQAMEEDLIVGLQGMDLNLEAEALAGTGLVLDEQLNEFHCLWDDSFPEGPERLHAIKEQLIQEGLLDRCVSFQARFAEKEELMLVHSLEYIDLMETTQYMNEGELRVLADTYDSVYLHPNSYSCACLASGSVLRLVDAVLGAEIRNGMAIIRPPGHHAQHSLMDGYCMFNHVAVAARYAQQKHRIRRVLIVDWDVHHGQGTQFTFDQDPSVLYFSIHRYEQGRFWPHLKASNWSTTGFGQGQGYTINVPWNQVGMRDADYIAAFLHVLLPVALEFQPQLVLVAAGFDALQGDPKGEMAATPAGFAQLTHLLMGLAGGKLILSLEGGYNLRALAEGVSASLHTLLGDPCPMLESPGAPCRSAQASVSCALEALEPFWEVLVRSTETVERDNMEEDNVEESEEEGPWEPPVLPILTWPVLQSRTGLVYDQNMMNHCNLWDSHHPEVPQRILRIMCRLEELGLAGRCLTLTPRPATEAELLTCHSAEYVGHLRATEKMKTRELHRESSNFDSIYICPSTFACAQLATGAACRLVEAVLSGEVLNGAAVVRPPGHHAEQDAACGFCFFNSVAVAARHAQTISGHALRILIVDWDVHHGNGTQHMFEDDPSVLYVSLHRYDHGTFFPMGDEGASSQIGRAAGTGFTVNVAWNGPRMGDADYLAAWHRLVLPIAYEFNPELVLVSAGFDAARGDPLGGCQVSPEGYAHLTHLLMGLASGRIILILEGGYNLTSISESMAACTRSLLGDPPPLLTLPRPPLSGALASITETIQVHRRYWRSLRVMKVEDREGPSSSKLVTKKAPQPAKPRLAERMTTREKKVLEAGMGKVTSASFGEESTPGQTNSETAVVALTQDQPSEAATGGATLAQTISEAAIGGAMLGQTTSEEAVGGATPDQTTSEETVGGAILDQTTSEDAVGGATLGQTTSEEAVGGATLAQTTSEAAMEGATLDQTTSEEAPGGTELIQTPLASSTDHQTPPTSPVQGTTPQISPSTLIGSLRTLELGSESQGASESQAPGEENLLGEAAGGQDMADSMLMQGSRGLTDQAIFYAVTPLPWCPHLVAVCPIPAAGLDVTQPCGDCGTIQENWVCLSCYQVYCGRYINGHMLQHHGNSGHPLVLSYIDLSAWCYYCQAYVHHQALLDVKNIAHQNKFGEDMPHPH
Description: (§1) Enzyme inhibition assays were performed by the Reaction Biology Corporation, Malvern, PA (http://www.reactionbiology.com).

HDAC8 = biological target: T2, HDAC8 (Homo sapiens, UniProt Q9BY41); assay: HDAC enzyme inhibition assay, HDAC8; assay type: biochemical; conditions: 10-dose, 3-fold serial dilution starting at 10 μM
T2 construct: purchased Reaction Biology Corporation, Malvern, PA (contract assay service)
T2 sequence (Q9BY41 1-377): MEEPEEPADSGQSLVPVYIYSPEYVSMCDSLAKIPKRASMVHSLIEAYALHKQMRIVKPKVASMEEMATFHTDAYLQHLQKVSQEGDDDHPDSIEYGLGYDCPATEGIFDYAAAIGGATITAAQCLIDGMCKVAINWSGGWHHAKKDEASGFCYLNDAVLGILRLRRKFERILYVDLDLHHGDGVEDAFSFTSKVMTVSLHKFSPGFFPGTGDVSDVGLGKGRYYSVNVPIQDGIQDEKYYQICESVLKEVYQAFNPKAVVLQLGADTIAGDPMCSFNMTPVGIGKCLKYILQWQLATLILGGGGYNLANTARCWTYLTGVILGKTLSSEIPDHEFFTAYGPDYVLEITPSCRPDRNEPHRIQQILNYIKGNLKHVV
Description: as §1

U87MG-R = assay: CCK8 cell proliferation assay, U87MG-R; assay type: cell-based; conditions: Homo sapiens, CCK8, 72 h
Description: Cell viability and drug cytotoxicity were determined by a CCK-8 kit (Cell Counting Kit-8, CK04-13, MD, USA) (CCK8, C0005, Target Molecule Corp., MA, USA) reagent. Cells were seeded 2 × 10^3 per well in the 96-well plate for 24 h, followed by treating at different concentrations of compounds for 72 h. Before the experiment, CCK8 was 10-fold diluted with the culture medium and then incubated with cells for 30 min. Finally, the OD was 450 nm absorbance and calculated for cell viability.

Primary Mouse Neuron = assay: CCK8 assay, primary culture neurons; assay type: cell-based
Description: The human glioblastoma cell lines U87MG (HTB-14), T98G (CRL-1690), and A172 (CRL-1620) were provided by the American Type Culture Collection (Manassas, VA, USA). The patient-derived cell line PT#3 was purified under the approval of the Institutional Review Board of Taipei Medical University (TMU) (No. 201006011). The murine astrocytoma cell line CT-2A (SCC194) was purchased from Merch Millipore (MA, USA). TMZ-resistant cell lines were established as described previously.[40] All cell lines were cultured in Dulbecco’s modified Eagle’s medium basal medium (Cat# 10-013-CM, CORNING, MA, USA), supplemented with 10% fetal bovine serum (Cat# 12676029, Thermo Fisher Scientific, MA, USA), 100 units/mL penicillin, and 100 μg/mL streptomycin (Cat# 15140122, Thermo Fisher Scientific) at 37 °C in the environment of 95% air and 5% carbon dioxide and maintained resistant characteristic with […] of TMZ (Cat# HY-17364, MedChemExpress, NJ, USA). Primary cultured astrocytes and neurons were derived from E17 embryonic mice. […]
Cell viability and drug cytotoxicity were determined by a CCK-8 kit (Cell Counting Kit-8, CK04-13, MD, USA) (CCK8, C0005, Target Molecule Corp., MA, USA) reagent. […] Finally, the OD was 450 nm absorbance and calculated for cell viability.

O=C(/C=C/c1ccc(CNC[C@H]2CN(c3ccc(N4CCOCC4)c(F)c3)C(=O)O2)cc1)NO [compound 1, (S,E)-3-(4-((((3-(3-Fluoro-4-morpholinophenyl)-2-oxooxazolidin-5-yl)methyl)ami-no)methyl)phenyl)-N-hydroxyacrylamide]
IC50 (HDAC6): 0.106 µM | IC50 (HDAC8): 0.447 µM | IC50 (U87MG-R): 16.6 ± 0.45 µM | IC50 (Primary Mouse Neuron): 65.9 ± 4 µM
